{
  "source": "patent US7851467B2",
  "about": "“Carbamate compounds as 5-HT4 receptor agonists” (Theravance, Inc., priority 2005, dated 2010)",
  "target": "T1, hERG cardiac potassium channel (Homo sapiens, UniProt Q12809)",
  "T1 construct": "host or cells: CHO-K1",
  "T1 sequence (Q12809 whole entry)": "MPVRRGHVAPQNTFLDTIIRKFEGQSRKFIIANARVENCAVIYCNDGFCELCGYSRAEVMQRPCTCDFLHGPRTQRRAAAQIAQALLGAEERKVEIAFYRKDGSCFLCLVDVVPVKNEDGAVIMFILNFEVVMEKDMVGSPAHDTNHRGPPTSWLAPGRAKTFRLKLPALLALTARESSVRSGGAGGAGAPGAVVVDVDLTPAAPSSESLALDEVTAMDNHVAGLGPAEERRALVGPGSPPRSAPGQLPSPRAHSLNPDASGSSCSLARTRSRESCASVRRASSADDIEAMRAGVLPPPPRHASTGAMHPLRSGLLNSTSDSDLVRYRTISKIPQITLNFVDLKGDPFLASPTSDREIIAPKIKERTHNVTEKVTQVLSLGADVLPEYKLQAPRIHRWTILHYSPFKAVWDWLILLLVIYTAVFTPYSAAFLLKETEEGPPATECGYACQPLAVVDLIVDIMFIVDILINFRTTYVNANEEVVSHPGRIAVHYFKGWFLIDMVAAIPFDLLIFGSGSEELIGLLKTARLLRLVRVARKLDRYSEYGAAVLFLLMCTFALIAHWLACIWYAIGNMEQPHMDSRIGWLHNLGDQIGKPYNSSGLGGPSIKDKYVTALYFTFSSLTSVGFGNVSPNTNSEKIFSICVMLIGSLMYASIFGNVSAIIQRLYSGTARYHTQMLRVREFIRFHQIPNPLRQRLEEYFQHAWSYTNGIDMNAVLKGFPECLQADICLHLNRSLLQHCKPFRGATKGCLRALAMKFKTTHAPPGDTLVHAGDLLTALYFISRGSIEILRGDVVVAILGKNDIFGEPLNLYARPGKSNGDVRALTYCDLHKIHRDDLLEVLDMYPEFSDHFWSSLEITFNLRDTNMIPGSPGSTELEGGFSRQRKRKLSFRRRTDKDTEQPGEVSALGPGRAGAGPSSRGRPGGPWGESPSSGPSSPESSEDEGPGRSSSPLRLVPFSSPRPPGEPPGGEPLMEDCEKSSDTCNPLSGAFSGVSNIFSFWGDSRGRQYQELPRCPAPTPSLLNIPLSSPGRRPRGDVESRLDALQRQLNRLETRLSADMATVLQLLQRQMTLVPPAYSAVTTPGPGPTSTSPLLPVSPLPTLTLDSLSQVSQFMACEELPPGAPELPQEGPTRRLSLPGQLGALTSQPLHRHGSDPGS",
  "assay": "In vitro voltage clamp assay of inhibition of potassium ion current in whole cells expressing hERG",
  "type": "cell-based",
  "conditions": "CHO-K1 cells stably transfected with hERG, pH 7.4, five-minute exposure",
  "description": "Assay 4: In Vitro Voltage Clamp Assay of Inhibition of Potassium Ion Current in Whole Cells Expressing the hERG Cardiac Potassium Channel\nCHO-K1 cells stably transfected with hERG cDNA were obtained from Gail Robertson at the University of Wisconsin. Cells were held in cryogenic storage until needed. Cells were expanded and passaged in Dulbecco's Modified Eagles Medium/F12 supplemented with 10% fetal bovine serum and 200 μg/mL geneticin. Cells were seeded onto poly-D-lysine (100 μg/mL) coated glass coverslips, in 35 mm^2 dishes (containing 2 mL medium) at a density that enabled isolated cells to be selected for whole cell voltage-clamp studies. The dishes were maintained in a humidified, 5% CO2 environment at 37° C.\nExtracellular solution was prepared at least every 7 days and stored at 4° C. when not in use. […]\nThe coverslips on which the cells were seeded were transferred to a recording chamber and perfused continuously. […] Peak current amplitudes during the repolarization phase were determined using pClamp software. […]\nPeak current amplitudes during the repolarization phase were determined using pCLAMP software. […] The normalized current means and standard errors for each condition were calculated and plotted versus the time course of the experiment. […]",
  "data": [
    {"smiles": "CC(C)n1c(=O)n(C(=O)N[C@H]2C[C@H]3CC[C@@H](C2)N3CCCOC(=O)N2CCN(C(=O)C3CCCO3)CC2)c2ccccc21", "note": "(stereo partly drawn) [Example 1, 4-(tetrahydrofuran-2-carbonyl)piperazine-1-carboxylic acid 3-{(1S,3R,5R)-3-[(3-isopropyl-2-oxo-2,3-dihydrobenzoimidazole-1-carbonyl)amino]-8-aza-bicyclo[3.2.1]oct-8-yl}propyl ester]", "values": [
      {"measurement": "inhibition at 5 min, 3 µM", "result": "~9", "unit": "%"}
    ]}
  ]
}
